Test results from the supplement of paper PMC10307832.

Columns and labels:
Assay in all cases: relative viability (nuclei count vs DMSO), 5 days (fraction); higher = more cells survive
[1] = test system: NCI-H2126
In short: (§1)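 Values are medians from duplicate plates. Each reflects relative viability, defined as the nuclei count of treated wells over that of vehicle wells. Lung cancer cell lines in 1536-well plates were pin-tool dosed one day after seeding with one drug alone or with a fixed anchor-drug dose plus five library-drug doses (not always all listed) in √10 steps, then fixed, stained and imaged at 4× after 5 days.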

[2] = test system: NCI-H2228
In short: as §1

[3] = test system: NCI-H23
In short: as §1

[4] = test system: NCI-H2405
In short: as §1

[5] = test system: NCI-H322M
In short: as §1

[6] = test system: NCI-H460
In short: as §1

[7] = test system: NCI-H647
In short: as §1

[8] = test system: NCI-H650
In short: as §1

[9] = test system: NCI-H661
In short: as §1

[10] = test system: NCI-H838
In short: as §1

[11] = test system: PC-14
In short: as §1

Work on CCNC(=O)c1noc(-c2cc(C(C)C)c(O)cc2O)c1-c1ccc(CN2CCOCC2)cc1 [Luminespib] + Cc1nc(NC(=O)N2CCC[C@H]2C(N)=O)sc1-c1ccnc(C(C)(C)C(F)(F)F)c1 [Alpelisib] (partner 2 µM) yielded a relative viability ([1]; first compound 0.006325 µM) of 0.727, a relative viability ([1]; first compound 0.02 µM) of 0.538 and a relative viability ([1]; first compound 0.06325 µM) of 0.748. The relative viability ([1]; first compound 0.2 µM) was 0.838, the relative viability ([2]; first compound 0.002 µM) was 0.808 and the relative viability ([2]; first compound 0.006325 µM) was 0.595. The relative viability ([2]; first compound 0.02 µM) was 0.156, the relative viability ([2]; first compound 0.06325 µM) was 0.142 and the relative viability ([2]; first compound 0.2 µM) was 0.136. For the same compound, the relative viability ([3]; first compound 0.002 µM) was 0.814, the relative viability ([3]; first compound 0.006325 µM) was 0.56 and the relative viability ([3]; first compound 0.02 µM) was 0.504. The relative viability ([3]; first compound 0.06325 µM) was 0.141, the relative viability ([3]; first compound 0.2 µM) was 0.116 and the relative viability ([4]; first compound 0.002 µM) was 0.968. The relative viability ([4]; first compound 0.006325 µM) was 0.513, the relative viability ([4]; first compound 0.02 µM) was 0.483 and the relative viability ([4]; first compound 0.06325 µM) was 0.19. The relative viability ([4]; first compound 0.2 µM) was 0.15, the relative viability ([5]; first compound 0.002 µM) was 0.774 and the relative viability ([5]; first compound 0.006325 µM) was 0.711. For the same compound, the relative viability ([5]; first compound 0.02 µM) was 0.588, the relative viability ([5]; first compound 0.06325 µM) was 0.751 and the relative viability ([5]; first compound 0.2 µM) was 0.807. The relative viability ([6]; first compound 0.002 µM) was 0.508, the relative viability ([6]; first compound 0.006325 µM) was 0.447 and the relative viability ([6]; first compound 0.02 µM) was 0.0191. The relative viability ([6]; first compound 0.06325 µM) was 0.0086, the relative viability ([6]; first compound 0.2 µM) was 0.0122 and the relative viability ([7]; first compound 0.002 µM) was 1.25. It also gave a relative viability ([7]; first compound 0.006325 µM) of 1.12, a relative viability ([7]; first compound 0.02 µM) of 1.03 and a relative viability ([7]; first compound 0.06325 µM) of 0.103. It also gave a relative viability ([7]; first compound 0.2 µM) of 0.0917, a relative viability ([8]; first compound 0.002 µM) of 1.24 and a relative viability ([8]; first compound 0.006325 µM) of 1.04. For the same compound, the relative viability ([8]; first compound 0.02 µM) was 0.994, the relative viability ([8]; first compound 0.06325 µM) was 0.193 and the relative viability ([8]; first compound 0.2 µM) was 0.145. The relative viability ([9]; first compound 0.002 µM) was 0.628, the relative viability ([9]; first compound 0.006325 µM) was 0.608 and the relative viability ([9]; first compound 0.02 µM) was 0.48. For the same compound, the relative viability ([9]; first compound 0.06325 µM) was 0.322, the relative viability ([9]; first compound 0.2 µM) was 0.184 and the relative viability ([10]; first compound 0.002 µM) was 1.03. The relative viability ([10]; first compound 0.006325 µM) was 0.927, the relative viability ([10]; first compound 0.02 µM) was 0.589 and the relative viability ([10]; first compound 0.06325 µM) was 0.168. For the same compound, the relative viability ([10]; first compound 0.2 µM) was 0.153, the relative viability ([11]; first compound 0.002 µM) was 0.942 and the relative viability ([11]; first compound 0.006325 µM) was 0.882. The relative viability ([11]; first compound 0.02 µM) was 0.893, the relative viability ([11]; first compound 0.06325 µM) was 0.091 and the relative viability ([11]; first compound 0.2 µM) was 0.0816.
